Values quoted from earlier work, collected in US20080063781A1, “Globin Digest Containing, Yeast-Fermented Beverages” (Suntory Limited, priority 2004, published 2008).

System: serum triglyceride levels
Settings: reported in JP 9-255698 A

Substance | suppressive activity against the elevation of serum triglyceride levels
Val-Val-Tyr-Pro (VVYP; printed: Val-Val-Tyr-Pro) | strong suppressive activity against the elevation of serum triglyceride levels
Val-Thr-Leu [VTL] | strong suppressive activity against the elevation of serum triglyceride levels
